{"source": "patent US6608109B2", "about": "“Composition comprising L-arginine as a muscle growth stimulant and use thereof” (priority 1991, dated 2003)", "key": {"[1]": {"assay": "Oral administration of M2 / L-arginine to test subjects: side-effects and tolerance", "assay_type": "in vivo, human", "details": "L-arginine taken alone on an empty stomach", "excerpt": "The subject was placed on L-Arginine M2 therapy."}, "[2]": {"assay": "Oral administration of M2 to test subjects: muscle mass and bodyfat", "assay_type": "in vivo, human", "experimental": "The above composition (identified as M2) was administered to test subjects. Those tests and the results are described in Example 2."}}, "data": [{"compound": "N=C(N)NCCCC(N)C(=O)O", "note": "[L-Arginine, 2-amino-5-guanidinovaleric acid]", "values": [{"measurement": "disadvantages (side effects) from ingestion", "setting": "[1]", "result": "headache, diarrhea, flatulence, depletion of electrolytes"}, {"measurement": "Therapeutic dose for this subject", "setting": "[2]; subject (1)", "result": 15, "unit": "grams L-Arginine per day"}, {"measurement": "dose required for Growth Hormone response out of pituitary gland", "setting": "[2]; subject (2), totally empty stomach: 3+ hours", "result": "15-20 grams"}]}]}
